# In patent US10202420B2, “Methods and compositions for treatment of cartilage and disc tissue pathologies” (THE ROYAL INSTITUTION FOR ADVANCEMENT OF LEARNING/MCGILL …, priority 2013, dated 2019):
# Legend:
# Format in all cases: cell-based
# aggrecan core protein = assay: Aggrecan core protein by Western blot, bovine disc organ culture; conditions: degenerated bovine discs, 2 weeks post Link N 1-8 treatment
# From the text: (§1) The largest first 3-4 caudal discs were isolated from the tails of 24- to 30-month-old steers, as described previously (21,22). Briefly, the tails were dissected free of skin, muscles and ligaments, and pedicles for each segment were removed. The bone and the adjacent calcified part of the cartilaginous endplate were removed, so that the surface of the disc was soft and flexible without detectable calcified tissue. After the discs were rinsed in PBS supplemented with 1,000 U/mL penicillin, 1,000 μg/mL streptomycin and 0.25 μg/mL fungizone (GIBCO, Burlington, Canada), they were preconditioned for 3 days in sterile 80 mL specimen containers (STARPLEX Scientific, Etobicoke, Canada) containing 50 mL culture medium. (DMEM with 2 mM Glutamax and 25 mM Hepes, supplemented with 5% FBS, 100 U/mL penicillin, 100 μg/mL streptomycin, 50 μg/mL L-ascorbate). Degeneration was induced by a single injection of 100 μg trypsin (Sigma-Aldrich) dissolved in 75 μL PBS into the center of the disc using a 28 G½ needle (21) The needle was placed on top of the disc to measure the distance needed to reach the center and was then inserted to the same depth. […] The number of MSCs used was based on a study by Liebscher et al (23), which measured the cell density of healthy human discs. […]
# (§2) The remaining nucleus pulposus (NP) tissue was collected and the wet weight was recorded (21). […]
# [1] = tested on: bovine discs with trypsin-induced degeneration; assay: Proteoglycan (GAG, DMMB) concentration in bovine disc organ culture with trypsin-induced degeneration; conditions: degenerated bovine discs, 2 weeks post Link N 1-8 treatment
# From the text: as §1, with “L-ascorbate).” for “L-ascorbate). Degeneration was induced by a single injection of 100 μg trypsin (Sigma-Aldrich) dissolved in 75 μL PBS into the center of the disc using a 28 G½ needle (21) The needle was placed on top of the disc to measure the distance needed to reach the center and was then inserted to the same depth.”
# as §2
# Sulfated glycosaminoglycans (GAGs) were quantified in tissue extracts by a modified dimethyl methylene blue (DMMB) dye-binding assay (25,26). […]
# [2] = tested on: bovine annulus fibrosus (AF) cells; assay: Proteoglycan synthesis by 35SO4 incorporation, cells in alginate beads; conditions: 48 h
# Procedure: (§3) Human and bovine IVDs were separated from the adjoining vertebral body and divided into NP and AF for bovine IVDs and NP and inner annulus fibrosus (iAF) for human IVDs. Tissue from the human outer annulus fibrosus (oAF) was not used for cell isolation in this study. Cells were enzymatically isolated from each region as previously described (63). Briefly, NP and AF tissues were dissected into approximately 2-mm thick pieces, washed twice in PBS containing 50 μg/mL gentamicin, […] and 0.25 μg/mL fungizone, then digested with 0.2% pronase for 1 h, followed by collagenase type IA at 0.01% for NP and 0.04% for AF tissue for 4 h in serum free DMEM.
# (§4) To compare the metabolic response to the various Link N peptides, freshly isolated human and bovine cells from NP and AF regions were embedded in 1.2% alginate beads, as previously described (65). Cells in alginate beads were cultured at 37° C., 5% CO2 in DMEM, containing 4.5 g/L glucose and supplemented with 10% FCS, 25 mmol/L HEPES, 50 μg/mL gentamicin sulphate, 0.25 μg/mL fungizone, 50 μg/mL L-ascorbate, and 2 mmol/L GlutaMAX. The beads were stabilized for 7 days and cell viability was assessed by Live/Dead® assay prior to further treatment. 5 beads per well were then cultured in 48 well plates in the presence of equimolar concentrations of either Link N (1 μg/mL), R-Link N (1 μg/mL), S-Link N (1 μg/mL), Link N 1-8 (0.5 μg/mL) or Link N 9-16 (0.5 μg/mL) in 0.5 mL DMEM. 25 μCi/mL ^35SO4 was added to the medium to allow assessment of proteoglycan synthesis (66). In addition, beads were exposed for 48 h to IL-1β (10 ng/mL) alone, or to a combination of peptides and IL-1β (51). At the end of the culture period, medium was collected and dialyzed exhaustively against miliQ water at […] (Spectra/Por® 3), followed by cold chase with 1M MgSO4 for 2 h to remove any remaining unincorporated ^35SO4. The ^35SO4 incorporation was measured using a beta scintillation counter (Beckman Coulter LS6500, Beckman Coulter, Mississauga, Canada).
# [3] = tested on: bovine nucleus pulposus (NP) cells; assay: as above; conditions: 48 h
# Procedure: as §3, §4
# [4] = tested on: human inner annulus fibrosus (iAF) cells; assay: as above; conditions: human AF (iAF) cells, 48 h
# Procedure: (§5) Human thoracolumbar spines were retrieved through the Transplant Quebec organ donation program. Discs were obtained from 7 donors, 1 male and 6 female, with a mean age of 29.6 years and an age range of 16 to 47 years (Table 1). Donors having had recent chemotherapy, radiation therapies to the spine, or significant long-standing paralysis were excluded from the study. Spine retrieval was performed within 8 h of death. Discs with calcification and loss of disc height were not included in the study. All procedures were approved by the institutional review board of the Montreal General Hospital.
# as §3, §4
# [5] = tested on: human nucleus pulposus (NP) cells; assay: as above; conditions: 48 h
# Procedure: as §5, §3, §4
# type II collagen = assay: Type II collagen by Western blot, bovine disc organ culture; conditions: degenerated bovine discs, 2 weeks post Link N 1-8 treatment
# From the text: as §1, §2
# [6] = 16-mer peptides 1 μg/mL, 8-mer peptides 0.5 μg/mL, vs medium alone
# [7] = IL-1β 10 ng/mL, vs IL-1-containing medium
sequence,measurement,setting,value
"DHLSDNYT [Link N 1-8, Link-N first 8 peptide residues]",aggrecan expression,aggrecan core protein,statistically significant increase
same,proteoglycan synthesis (proteoglycan concentration in the discs),[1],statistically significant increase
same,proteoglycan synthesis (35SO4 incorporation),[2]; [6],statistically significant increase
same,proteoglycan synthesis (35SO4 incorporation) in the presence of IL-1β,[2]; [7],significantly induced proteoglycan production to the same extent as native Link N
same,proteoglycan synthesis (35SO4 incorporation),[3]; [6],statistically significant increase
same,proteoglycan synthesis (35SO4 incorporation) in the presence of IL-1β,[3]; [7],significantly induced proteoglycan production to the same extent as native Link N
same,proteoglycan synthesis (35SO4 incorporation),[4]; [6],significant increase
same,proteoglycan synthesis (35SO4 incorporation) in the presence of IL-1β,[4]; [7],significantly increased response
same,proteoglycan synthesis (35SO4 incorporation),[5]; [6],significant increase
same,proteoglycan synthesis (35SO4 incorporation) in the presence of IL-1β,[5]; [7],significantly increased response
same,type II collagen expression,type II collagen,statistically significant increase
